Assays:
Assay type in all cases: cell-based
[1] = test system: Streptococcus pyogenes C203; assay: MIC, standard broth micro-dilution assay, SPY C203; design: unit not given here
Procedure: (§1) The antibacterial efficacy of the present compounds is illustrated by Table II. The minimal inhibitory concentrations (MICs) were determined using a standard broth micro-dilution assay.

[2] = test system: Staphylococcus aureus 447; assay: MIC, standard broth micro-dilution assay, SA 447; design: unit not given here
Procedure: as §1

[3] = test system: Staphylococcus haemolyticus 105; assay: MIC, standard broth micro-dilution assay, SH 105; design: unit not given here
Procedure: as §1

[4] = test system: Staphylococcus haemolyticus 415; assay: MIC, standard broth micro-dilution assay, SH 415; design: unit not given here
Procedure: as §1

[5] = test system: Enterococcus faecium and faecalis (SENSITIVE); assay: MIC, standard broth micro-dilution assay, SENSITIVE enterococci; design: unit not given here; conditions: geometric mean of 4-6 isolates
Procedure: as §1

[6] = test system: Staphylococcus epidermidis 270; assay: MIC, standard broth micro-dilution assay, SE 270; design: unit not given here
Procedure: as §1

[7] = test system: Streptococcus pneumoniae P1; assay: MIC, standard broth micro-dilution assay, SPN P1; design: unit not given here
Procedure: as §1

[8] = test system: Staphylococcus aureus 489; assay: MIC, standard broth micro-dilution assay, SA 489; design: unit not given here
Procedure: as §1

[9] = test system: Enterococcus faecium and faecalis (RESISTANT); conditions: geometric mean of 4-6 isolates
Procedure: as §1

[10] = test system: Staphylococcus aureus 446; assay: MIC, standard broth micro-dilution assay, SA 446; design: unit not given here
Procedure: as §1

Row | SMILES | Minimal Inhibitory Concentration (MIC) SPY C203 [1] | Minimal Inhibitory Concentration (MIC) SA 447 [2] | Minimal Inhibitory Concentration (MIC) SH 105 [3] | Minimal Inhibitory Concentration (MIC) SH 415 [4] | Minimal Inhibitory Concentration (MIC) SENSITIVE [5] | Minimal Inhibitory Concentration (MIC) SE 270 [6] | Minimal Inhibitory Concentration (MIC) SPN P1 [7] | Minimal Inhibitory Concentration (MIC) SA 489 [8] | Minimal Inhibitory Concentration (MIC) RESISTANT [9] | Minimal Inhibitory Concentration (MIC) SA 446 [10]
1 | C[C@@H]1O[C@@H](O[C@@H]2c3ccc(c(Cl)c3)Oc3cc4cc(c3O[C@@H]3O[C@H](CO)[C@@H](O)[C@H](O)[C@H]3O[C@H]3C[C@](C)(NCc5ccc(-c6ccccc6)cc5)[C@@H](O)[C@H](C)O3)Oc3ccc(cc3Cl)[C@@H](O)[C@@H](NCc3ccc(O)cc3)C(=O)N[C@@H](CC(N)=O)C(=O)N[C@H]4C(=O)N[C@H]3C(=O)N[C@@H]2C(=O)N[C@H](C(=O)O)c2cc(O)cc(O)c2-c2cc3ccc2O)C[C@](C)(N)[C@H]1O [Example 17, N^1 -(p-HYDROXYBENZYL)-N^DISACC -(p-PHENYLBENZYL)-DESLEUCYL-A82846B] | ≤ .06 | 0.5 | 0.5 | 1 | 2.6 | 0.5 | ≤ .06 | 1 | 27 | 1
2 | C[C@@H]1O[C@@H](O[C@@H]2c3ccc(c(Cl)c3)Oc3cc4cc(c3O[C@@H]3O[C@H](CO)[C@@H](O)[C@H](O)[C@H]3O[C@H]3C[C@](C)(NCc5ccc(-c6ccccc6)cc5)[C@@H](O)[C@H](C)O3)Oc3ccc(cc3Cl)[C@@H](O)[C@@H](NCCCCCCCCCCCCc3ccccc3)C(=O)N[C@@H](CC(N)=O)C(=O)N[C@H]4C(=O)N[C@H]3C(=O)N[C@@H]2C(=O)N[C@H](C(=O)O)c2cc(O)cc(O)c2-c2cc3ccc2O)C[C@](C)(N)[C@H]1O [Example 2, N^1 -(12-PHENYL-n-DODECYL)-N^DISACC -(p-PHENYLBENZYL)-DESLEUCYL-A82846B] | 4 | > 64 | > 64 | > 64 | 24 | 32 | ≤ .06 | 64 | 45 | 32
3 | C[C@@H]1O[C@@H](O[C@H]2[C@H](Oc3c4cc5cc3Oc3ccc(cc3Cl)[C@@H](O[C@H]3C[C@](C)(N)[C@@H](O)[C@H](C)O3)[C@@H]3NC(=O)[C@H](NC(=O)[C@@H]5NC(=O)[C@H](CC(N)=O)NC(=O)[C@H](NCc5ccc(O)cc5)[C@H](O)c5ccc(c(Cl)c5)O4)c4ccc(O)c(c4)-c4c(O)cc(O)cc4[C@@H](C(=O)O)NC3=O)O[C@H](CO)[C@@H](O)[C@@H]2O)C[C@](C)(N)[C@H]1O [Example 13, N^1 -(p-HYDROXYBENZYL)-DESLEUCYL-A82846B] | 0.25 | 32 | > 64 | > 64 | 4 | 32 | ≤ .06 | 8 | 54 | 16
4 | C[C@@H]1O[C@@H](O[C@H]2[C@H](Oc3c4cc5cc3Oc3ccc(cc3Cl)[C@@H](O[C@H]3C[C@](C)(N)[C@@H](O)[C@H](C)O3)[C@@H]3NC(=O)[C@H](NC(=O)[C@@H]5NC(=O)[C@H](CC(N)=O)NC(=O)[C@H](NCc5ccccc5)[C@H](O)c5ccc(c(Cl)c5)O4)c4ccc(O)c(c4)-c4c(O)cc(O)cc4[C@@H](C(=O)O)NC3=O)O[C@H](CO)[C@@H](O)[C@@H]2O)C[C@](C)(N)[C@H]1O [Example 12, N^1 -BENZYLDESLEUCYL-A82846B] | 2 | > 64 | > 64 | > 64 | 128 | > 64 | 2 | 64 | > 128 | > 64
5 | C[C@@H]1O[C@@H](O[C@H]2[C@H](Oc3c4cc5cc3Oc3ccc(cc3Cl)[C@@H](O[C@H]3C[C@](C)(N)[C@@H](O)[C@H](C)O3)[C@@H]3NC(=O)[C@H](NC(=O)[C@@H]5NC(=O)[C@H](CC(N)=O)NC(=O)[C@H](NCc5ccc(-c6cc(C(F)(F)F)cc(C(F)(F)F)c6)cc5)[C@H](O)c5ccc(c(Cl)c5)O4)c4ccc(O)c(c4)-c4c(O)cc(O)cc4[C@@H](C(=O)O)NC3=O)O[C@H](CO)[C@@H](O)[C@@H]2O)C[C@](C)(N)[C@H]1O [Example 22, N^1 -(p-(3,5-BIS-(TRIFLUOROMETHYL)-PHENYL)BENZYL)-DESLEUCYL-A82846B] | ≤ .06 | 2 | 1 | 2 | 4.6 | 2 | ≤ .06 | 1 | 9.5 | 2
6 | CSc1ccc(CN[C@H]2C(=O)N[C@@H](CC(N)=O)C(=O)N[C@H]3C(=O)N[C@H]4C(=O)N[C@H](C(=O)N[C@H](C(=O)O)c5cc(O)cc(O)c5-c5cc4ccc5O)[C@H](O[C@H]4C[C@](C)(N)[C@@H](O)[C@H](C)O4)c4ccc(c(Cl)c4)Oc4cc3cc(c4O[C@@H]3O[C@H](CO)[C@@H](O)[C@H](O)[C@H]3O[C@H]3C[C@](C)(NCc4ccc(SC)cc4)[C@@H](O)[C@H](C)O3)Oc3ccc(cc3Cl)[C@H]2O)cc1 [Example 25, N^1,N^DISACC -BIS(p-(METHYLTHIO)-BENZYL)DESLEUCYL-A82846B] | 4 | 4 | 4 | 8 | 2.6 | 8 | 1 | 4 | 6.7 | 8
7 | C[C@@H]1O[C@@H](O[C@@H]2c3ccc(c(Cl)c3)Oc3cc4cc(c3O[C@@H]3O[C@H](CO)[C@@H](O)[C@H](O)[C@H]3O[C@H]3C[C@](C)(NCc5ccc(-c6ccccc6)cc5)[C@@H](O)[C@H](C)O3)Oc3ccc(cc3Cl)[C@@H](O)[C@@H](NCCCCCCc3ccccc3)C(=O)N[C@@H](CC(N)=O)C(=O)N[C@H]4C(=O)N[C@H]3C(=O)N[C@@H]2C(=O)N[C@H](C(=O)O)c2cc(O)cc(O)c2-c2cc3ccc2O)C[C@](C)(N)[C@H]1O [Example 20, N^1 -(6-PHENYL-n-HEXYL)-N^DISACC -(p-PHENYLBENZYL)-DESLEUCYL-A82846B] | ≤ .06 | 4 | 1 | 1 | 11 | 1 | ≤ .06 | 4 | 64 | 4
8 | CC1OC(OC2c3ccc(c(Cl)c3)Oc3cc4cc(c3OC3OC(CO)C(O)C(O)C3OC3CC(C)(N)C(O)C(C)O3)Oc3ccc(cc3Cl)C(O)C(NCCCCCCCCCCCCc3ccccc3)C(=O)NC(CC(N)=O)C(=O)NC4C(=O)NC3C(=O)NC2C(=O)NC(C(=O)O)c2cc(O)cc(O)c2-c2cc3ccc2O)CC(C)(N)C1O (stereo not shown) [Example 1, N^1 -(12-PHENYL-n-DODECYL)DESLEUCYL-A82846B] | 0.125 | 2 | 4 | 8 | 9.2 | 4 |  | 2 | 13 | 8

Source: patent US5977063A, “Alkylated hexapeptides” (Eli Lilly and Company, priority 1998, dated 1999)
